Measured values reported in article PMC12001207 (The FEBS journal, 2025).

How the values were obtained:
Type in all cases: cell-based
[1] = molecular target: T1, succinate receptor 1 (SUCNR1) (Homo sapiens, UniProt Q9BXA5); assay: cAMP inhibition assay; also DMR, IP1, Ca2+, arrestin-3 and miniG BRET
T1 sequence (Q9BXA5 1-334): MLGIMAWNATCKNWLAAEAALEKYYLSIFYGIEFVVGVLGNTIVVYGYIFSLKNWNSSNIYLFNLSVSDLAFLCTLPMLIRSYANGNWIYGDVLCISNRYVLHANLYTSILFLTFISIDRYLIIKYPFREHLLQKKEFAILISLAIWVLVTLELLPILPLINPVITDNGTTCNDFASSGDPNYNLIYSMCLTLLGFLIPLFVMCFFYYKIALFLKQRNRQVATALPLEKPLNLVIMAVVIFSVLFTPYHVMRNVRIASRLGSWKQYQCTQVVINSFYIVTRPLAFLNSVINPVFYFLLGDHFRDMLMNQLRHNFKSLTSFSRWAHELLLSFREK

[2] = molecular target: T1, succinate receptor 1 (SUCNR1); assay: antagonism at […] of agonist-induced IP1, Ca2+, cAMP inhibition, DMR and miniG BRET
[3] = molecular target: T1, succinate receptor 1 (SUCNR1); assay: dynamic mass redistribution, concentration-response

SMILES: O=C(O)[C@H]1O[C@H]1C(=O)O [CES, cis-epoxysuccinate]
- EC50 [1]: ~111 nM

SMILES: CN1CCN(Cc2ccc(-c3cccc(C(=O)Nc4ccccc4CC(=O)O)c3)cc2)CC1 [NF56-EJ40, 2-(2-(4′-((4-methylpiperazin-1-yl)methyl)-[1,1′-biphenyl]-3-carboxamido)phenyl)acetic acid]
- antagonism at 100 nM of agonist-induced IP1, Ca2+, cAMP inhibition, DMR and mini [2]: NF56-EJ40 also completely inhibited the agonist-induced SUCNR1-mediated IP1 formation and caused a significant shift of the cAMP inhibition curve

SMILES: O=C(O)CCC(=O)O [SUC, succinate]
- EC50 [1]: ~644 nM

SMILES: C=C(CC(=O)O)C(=O)O [itaconate]
- dynamic mass redistribution, concentration-response [3]: Metabolite SUCNR1 agonists (malate, oxaloacetate, methylmalonate, itaconate, malonate) showed concentration-dependent responses upon SUCNR1 stimulation

SMILES: O=C(O)CC(O)C(=O)O (centres unmarked) [malate]
- dynamic mass redistribution, concentration-response [3]: Metabolite SUCNR1 agonists (malate, oxaloacetate, methylmalonate, itaconate, malonate) showed concentration-dependent responses upon SUCNR1 stimulation

SMILES: O=C(O)CC(=O)O [malonate]
- dynamic mass redistribution, concentration-response [3]: Metabolite SUCNR1 agonists (malate, oxaloacetate, methylmalonate, itaconate, malonate) showed concentration-dependent responses upon SUCNR1 stimulation

SMILES: CC(C(=O)O)C(=O)O [methylmalonate]
- dynamic mass redistribution, concentration-response [3]: Metabolite SUCNR1 agonists (malate, oxaloacetate, methylmalonate, itaconate, malonate) showed concentration-dependent responses upon SUCNR1 stimulation

SMILES: O=C(O)CC(=O)C(=O)O [oxaloacetate]
- dynamic mass redistribution, concentration-response [3]: Metabolite SUCNR1 agonists (malate, oxaloacetate, methylmalonate, itaconate, malonate) showed concentration-dependent responses upon SUCNR1 stimulation
